Measurements from ChEMBL document CHEMBL1909046, “DrugMatrix in vitro pharmacology data”.
*1 amine or outer side, *2 acyl side, *3 side chain or, on linkers, in order; H or OH if unused. Where a SMILES comes first, the peptide text is derived from it. Bridges are numbered along the chain shown (N, C = ends). Roman numbers before positions name the chains, in order. [ ]: non-standard residue; d: D form. Actinocin(1to9) = Cc1c2oc3c(C)ccc(C(=O)[*:2])c3nc-2c(C(=O)[*:1])c(N)c1=O; NMeV = CN[C@H](C(=O)O)C(C)C; Sar = CNCC(=O)O

Legend:
Melanocortin receptor 5 = Melanocortin receptor 5 (Homo sapiens, UniProt P33032); assay type: cell membranes, HEK293, Membrane; settings: hek293; further: in other assays of this panel Not Active means under 50% inhibition at 10 µM
[1] = target: T1, Neuropeptide Y receptor type 1 (Homo sapiens, UniProt P25929); assay type: cell membranes, Membrane; settings: sk-n-mc; further: in other assays of this panel Not Active means under 50% inhibition at 10 µM
T1 sequence (P25929 whole entry): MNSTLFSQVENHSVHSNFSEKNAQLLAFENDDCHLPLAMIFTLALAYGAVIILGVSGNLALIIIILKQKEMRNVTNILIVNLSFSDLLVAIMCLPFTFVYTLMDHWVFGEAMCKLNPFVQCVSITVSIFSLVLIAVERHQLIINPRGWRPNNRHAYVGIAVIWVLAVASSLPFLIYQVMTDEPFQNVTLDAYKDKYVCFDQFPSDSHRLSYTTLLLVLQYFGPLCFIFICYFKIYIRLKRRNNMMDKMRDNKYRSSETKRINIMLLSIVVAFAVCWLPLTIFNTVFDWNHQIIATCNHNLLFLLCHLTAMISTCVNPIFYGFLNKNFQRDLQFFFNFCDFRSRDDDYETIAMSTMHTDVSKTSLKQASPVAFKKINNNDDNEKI

[2] = target: Delta-type opioid receptor (Homo sapiens, UniProt P41143); assay type: cell membranes, HEK293, Membrane; settings: hek293; further: in other assays of this panel Not Active means under 50% inhibition at 10 µM
Mu-type opioid receptor = Mu-type opioid receptor (Homo sapiens, UniProt P35372); assay: DRUGMATRIX: Opiate mu (OP3, MOP) radioligand binding (ligand: [3H] Diprenorphine); assay type: cell membranes, CHO-K1, Membrane; settings: Not Active = under 50% inhibition at 10 µM
[3] = DRUGMATRIX: Phorbol Ester radioligand binding (ligand: [3H] PDBu); assay type: cell membranes, Mus musculus, ICR, Brain, Membrane; settings: Not Active = under 50% inhibition at 10 µM
[4] = target: Platelet-activating factor receptor (Homo sapiens, UniProt P25105); assay type: tissue-based; further: in other assays of this panel Not Active means under 50% inhibition at 10 µM
Cytochrome P450 2A6 = target: T2, Cytochrome P450 2A6 (Homo sapiens, UniProt P11509); settings: bti-tn-5b1-4; further: in other assays of this panel Not Active means under 50% inhibition at 10 µM
T2 sequence (P11509 whole entry): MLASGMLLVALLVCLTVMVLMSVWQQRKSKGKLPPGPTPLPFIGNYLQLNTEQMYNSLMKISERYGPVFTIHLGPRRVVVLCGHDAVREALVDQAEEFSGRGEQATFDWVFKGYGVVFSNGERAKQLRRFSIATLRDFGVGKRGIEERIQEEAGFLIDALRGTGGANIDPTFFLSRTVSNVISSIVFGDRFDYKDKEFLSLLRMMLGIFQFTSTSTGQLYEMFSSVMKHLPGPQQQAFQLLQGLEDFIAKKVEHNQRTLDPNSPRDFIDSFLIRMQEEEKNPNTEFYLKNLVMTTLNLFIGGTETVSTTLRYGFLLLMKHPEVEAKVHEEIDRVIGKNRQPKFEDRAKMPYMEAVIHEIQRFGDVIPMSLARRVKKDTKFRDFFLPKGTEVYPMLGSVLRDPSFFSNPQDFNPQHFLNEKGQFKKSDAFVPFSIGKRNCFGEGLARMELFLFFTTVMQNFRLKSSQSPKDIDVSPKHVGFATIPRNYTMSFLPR

Estrogen receptor beta = Estrogen receptor beta (Homo sapiens, UniProt Q92731); settings: sf9; further: in other assays of this panel Not Active means under 50% inhibition at 10 µM
Sequence of Estrogen receptor beta (Q92731 whole entry): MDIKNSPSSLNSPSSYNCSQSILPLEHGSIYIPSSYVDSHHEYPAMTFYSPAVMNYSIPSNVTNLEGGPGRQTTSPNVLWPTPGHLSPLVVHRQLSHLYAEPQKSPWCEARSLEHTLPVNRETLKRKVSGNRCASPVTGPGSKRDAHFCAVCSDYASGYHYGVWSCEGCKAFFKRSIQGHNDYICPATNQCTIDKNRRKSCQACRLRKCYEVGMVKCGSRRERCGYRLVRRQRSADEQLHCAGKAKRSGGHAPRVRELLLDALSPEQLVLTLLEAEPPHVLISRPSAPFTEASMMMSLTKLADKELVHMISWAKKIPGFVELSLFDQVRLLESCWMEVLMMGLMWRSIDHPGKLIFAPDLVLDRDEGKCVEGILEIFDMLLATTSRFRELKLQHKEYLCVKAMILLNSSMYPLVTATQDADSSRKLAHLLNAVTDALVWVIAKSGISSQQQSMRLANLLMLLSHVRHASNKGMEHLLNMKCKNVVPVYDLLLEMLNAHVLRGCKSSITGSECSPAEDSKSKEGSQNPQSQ

Sequence of Delta-type opioid receptor (P41143 whole entry): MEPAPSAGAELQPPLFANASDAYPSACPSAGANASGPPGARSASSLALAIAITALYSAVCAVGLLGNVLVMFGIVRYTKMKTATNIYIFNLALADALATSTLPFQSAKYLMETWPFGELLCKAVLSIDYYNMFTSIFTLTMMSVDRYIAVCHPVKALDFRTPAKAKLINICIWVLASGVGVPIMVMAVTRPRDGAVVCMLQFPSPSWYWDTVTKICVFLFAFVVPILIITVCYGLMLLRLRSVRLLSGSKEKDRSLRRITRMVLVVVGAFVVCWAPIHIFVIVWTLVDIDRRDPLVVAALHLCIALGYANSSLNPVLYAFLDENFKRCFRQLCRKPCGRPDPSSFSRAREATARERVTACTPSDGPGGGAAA
Sequence of Platelet-activating factor receptor (P25105 whole entry): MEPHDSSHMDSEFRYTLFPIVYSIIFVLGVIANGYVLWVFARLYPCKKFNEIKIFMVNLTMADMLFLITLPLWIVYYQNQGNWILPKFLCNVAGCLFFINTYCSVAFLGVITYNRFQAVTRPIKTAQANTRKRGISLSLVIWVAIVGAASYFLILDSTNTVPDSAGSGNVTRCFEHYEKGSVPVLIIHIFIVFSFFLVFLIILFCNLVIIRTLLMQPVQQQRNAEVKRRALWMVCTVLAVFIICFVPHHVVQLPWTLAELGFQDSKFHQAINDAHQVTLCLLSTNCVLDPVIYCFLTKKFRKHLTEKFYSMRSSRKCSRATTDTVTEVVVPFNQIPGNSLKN
Sequence of Melanocortin receptor 5 (P33032 whole entry): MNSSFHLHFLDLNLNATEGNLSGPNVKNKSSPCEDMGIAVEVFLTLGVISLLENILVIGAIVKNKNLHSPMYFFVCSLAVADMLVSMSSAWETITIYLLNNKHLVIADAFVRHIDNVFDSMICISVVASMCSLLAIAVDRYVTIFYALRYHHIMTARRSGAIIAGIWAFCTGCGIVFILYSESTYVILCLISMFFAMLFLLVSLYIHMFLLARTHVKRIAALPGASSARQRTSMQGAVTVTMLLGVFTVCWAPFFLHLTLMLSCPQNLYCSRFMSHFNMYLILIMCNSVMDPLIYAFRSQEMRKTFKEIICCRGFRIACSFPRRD
Sequence of Mu-type opioid receptor (P35372 whole entry): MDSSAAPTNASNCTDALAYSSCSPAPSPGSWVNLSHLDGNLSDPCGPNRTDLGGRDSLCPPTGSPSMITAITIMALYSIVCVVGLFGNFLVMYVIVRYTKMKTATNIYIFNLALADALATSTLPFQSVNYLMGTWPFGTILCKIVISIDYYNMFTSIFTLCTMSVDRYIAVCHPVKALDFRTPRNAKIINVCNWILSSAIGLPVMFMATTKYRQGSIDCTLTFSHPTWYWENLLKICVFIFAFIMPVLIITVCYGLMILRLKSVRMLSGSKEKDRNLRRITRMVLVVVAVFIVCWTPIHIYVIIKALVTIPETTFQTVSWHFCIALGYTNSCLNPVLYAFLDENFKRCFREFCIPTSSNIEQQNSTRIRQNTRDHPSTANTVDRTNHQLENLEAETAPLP

Structure (SMILES)	IC50 (Melanocortin receptor 5)	IC50 [1]	IC50 [2]	IC50 (Mu-type opioid receptor; cho-k1)	IC50 [3]	Ki [3]	IC50 [4]	IC50 (Cytochrome P450 2A6)	Ki (Cytochrome P450 2A6)	IC50 (Estrogen receptor beta)	Ki (Mu-type opioid receptor) [nM]	IC50 (Mu-type opioid receptor; read-out: IC50) [nM]
CC1CC(OC(=O)C(O)c2ccccc2)CC(C)(C)C1 (stereo unspecified) [CYCLANDELATE]	Not Active	Not Active	Not Active	Not Active	Not Active	Not Active	Not Active	Not Active	Not Active	Not Active		
Cc1c2oc3c(C)ccc(C(=O)N[C@@H]4C(=O)N[C@H](C(C)C)C(=O)N5CCC[C@H]5C(=O)N(C)CC(=O)N(C)[C@@H](C(C)C)C(=O)O[C@@H]4C)c3nc-2c(C(=O)N[C@@H]2C(=O)N[C@H](C(C)C)C(=O)N3CCC[C@H]3C(=O)N(C)CC(=O)N(C)[C@@H](C(C)C)C(=O)O[C@@H]2C)c(N)c1=O [DACTINOMYCIN] (I: T[dV]P[Sar][NMeV] / II: T[dV]P[Sar][NMeV]; ester I:1-I:C, II:1-II:C; linker I:N-II:N via Actinocin(1to9))	Not Active	Not Active	Not Active	Not Active	Not Active	Not Active	Not Active	Not Active	Not Active	Not Active		
Cc1c(O)c(=O)ccn1C [DEFERIPRONE]	Not Active	Not Active	Not Active	Not Active	Not Active	Not Active	Not Active	Not Active	Not Active	Not Active		
O=c1oc2ccccc2c(O)c1Cc1c(O)c2ccccc2oc1=O [DICUMAROL]	Not Active	Not Active	Not Active	Not Active	Not Active	Not Active	Not Active	Not Active	Not Active	Not Active		
C[C@H]1O[C@@H](O[C@H]2[C@@H](O)C[C@H](O[C@H]3[C@@H](O)C[C@H](O[C@H]4CC[C@@]5(C)[C@H](CC[C@@H]6[C@@H]5C[C@@H](O)[C@]5(C)[C@@H](C7=CC(=O)OC7)CC[C@]65O)C4)O[C@@H]3C)O[C@@H]2C)C[C@H](O)[C@@H]1O [DIGOXIN]	Not Active	Not Active	Not Active	Not Active	Not Active	Not Active	Not Active	Not Active	Not Active	Not Active		
CC(C)[C@@]1(NC(=O)[C@@H]2C[C@@H]3c4cccc5[nH]cc(c45)C[C@H]3N(C)C2)O[C@@]2(O)[C@@H]3CCCN3C(=O)[C@H](Cc3ccccc3)N2C1=O.CS(=O)(=O)O [DIHYDROERGOCRISTINE MESYLATE]	Not Active	Not Active	Not Active		Not Active	Not Active	Not Active	Not Active	Not Active	Not Active	345	850
COc1cc2nc(N3CCN(C(=O)C4COc5ccccc5O4)CC3)nc(N)c2cc1OC (stereo unspecified) [DOXAZOSIN]	Not Active	Not Active	Not Active	Not Active	Not Active	Not Active	Not Active	Not Active	Not Active	Not Active		
O=C(CCCN1CC=C(n2c(=O)[nH]c3ccccc32)CC1)c1ccc(F)cc1 [DROPERIDOL]	Not Active	Not Active	Not Active	Not Active	Not Active	Not Active	Not Active	Not Active	Not Active	Not Active		
CC(C)[C@H]1C(=O)N2CCC[C@H]2[C@]2(O)O[C@](NC(=O)[C@@H]3C=C4c5cccc6[nH]cc(c56)C[C@H]4N(C)C3)(C(C)C)C(=O)N12 [ERGOCORNINE]	Not Active	Not Active	Not Active	Not Active	Not Active	Not Active	Not Active	Not Active	Not Active	Not Active		
OC(Cn1cncn1)(Cn1cncn1)c1ccc(F)cc1F [FLUCONAZOLE]	Not Active	Not Active	Not Active	Not Active	Not Active	Not Active	Not Active	Not Active	Not Active	Not Active		
CC(C)C(=O)Nc1ccc([N+](=O)[O-])c(C(F)(F)F)c1 [FLUTAMIDE]	Not Active	Not Active	Not Active	Not Active	Not Active	Not Active	Not Active	Not Active	Not Active	Not Active		
CC1(C)O[C@@H]2C[C@H]3[C@@H]4CCC5=CC(=O)CC[C@]5(C)[C@@]4(F)[C@@H](O)C[C@]3(C)[C@]2(C(=O)CCl)O1 [HALCINONIDE]	Not Active	Not Active	Not Active	Not Active	Not Active	Not Active	Not Active	Not Active	Not Active	Not Active		
O=c1[nH]c(=O)n([C@H]2C[C@H](O)[C@@H](CO)O2)cc1I [IDOXURIDINE]	Not Active	Not Active	Not Active	Not Active	Not Active	Not Active	Not Active	Not Active	Not Active	Not Active		
CC1Cc2ccccc2N1NC(=O)c1ccc(Cl)c(S(N)(=O)=O)c1 (stereo unspecified) [INDAPAMIDE]	Not Active	Not Active	Not Active	Not Active	Not Active	Not Active	Not Active	Not Active	Not Active	Not Active		
CCC(C)n1ncn(-c2ccc(N3CCN(c4ccc(OCC5COC(Cn6cncn6)(c6ccc(Cl)cc6Cl)O5)cc4)CC3)cc2)c1=O (stereo unspecified) [ITRACONAZOLE]	Not Active	Not Active	Not Active	Not Active	Not Active	Not Active	Not Active	Not Active	Not Active	Not Active		
CCCCN1CCCC[C@H]1C(=O)Nc1c(C)cccc1C [LEVOBUPIVACAINE]	Not Active	Not Active	Not Active	Not Active	Not Active	Not Active	Not Active	Not Active	Not Active	Not Active		
CCCCc1nc(Cl)c(CO)n1Cc1ccc(-c2ccccc2-c2nnn[nH]2)cc1 [LOSARTAN]	Not Active	Not Active	Not Active	Not Active	Not Active	Not Active	Not Active	Not Active	Not Active	Not Active		
Sc1ncnc2nc[nH]c12 [MERCAPTOPURINE ANHYDROUS]	Not Active	Not Active	Not Active	Not Active	Not Active	Not Active	Not Active	Not Active	Not Active	Not Active		
Cc1ccccc1N1C(=O)c2cc(S(N)(=O)=O)c(Cl)cc2NC1C (stereo unspecified) [METOLAZONE]	Not Active	Not Active	Not Active	Not Active	Not Active	Not Active	Not Active	Not Active	Not Active	Not Active		
COCCc1ccc(OCC(O)CNC(C)C)cc1 (stereo unspecified) [METOPROLOL]	Not Active	Not Active	Not Active	Not Active	Not Active	Not Active	Not Active	Not Active	Not Active	Not Active		
CCn1cc(C(=O)O)c(=O)c2cc(F)c(N3CCNCC3)cc21 [NORFLOXACIN]	Not Active	Not Active	Not Active	Not Active	Not Active	Not Active	Not Active	Not Active	Not Active	Not Active		
